Laboratory results published in US9096591B2, “Tetracyclic compounds” (Medivation Technologies, Inc., priority 2007, dated 2015).
Where two headings read alike, the source gives them in different places.

Tests used:
[1] = molecular target: T1, human recombinant adrenergic α2A receptor (Homo sapiens, UniProt P08913); assay: Adrenergic α2A radioligand binding ([3H]MK-912); parameters: Inhibition of ligand binding, Adren. alpha2A: concentration or dose not given beside the values; details: for Inhibition of ligand binding, Adren. alpha2A: percent inhibition of specific binding; for inhibition at 1 µM: compounds screened at 1 μM, read-out: Inhibition of ligand binding, Adren. alpha2A (percent inhibition of specific binding)
T1 construct: expressed in transfected cells; host or cells: insect Sf9 cells
T1 sequence (P08913 1-465): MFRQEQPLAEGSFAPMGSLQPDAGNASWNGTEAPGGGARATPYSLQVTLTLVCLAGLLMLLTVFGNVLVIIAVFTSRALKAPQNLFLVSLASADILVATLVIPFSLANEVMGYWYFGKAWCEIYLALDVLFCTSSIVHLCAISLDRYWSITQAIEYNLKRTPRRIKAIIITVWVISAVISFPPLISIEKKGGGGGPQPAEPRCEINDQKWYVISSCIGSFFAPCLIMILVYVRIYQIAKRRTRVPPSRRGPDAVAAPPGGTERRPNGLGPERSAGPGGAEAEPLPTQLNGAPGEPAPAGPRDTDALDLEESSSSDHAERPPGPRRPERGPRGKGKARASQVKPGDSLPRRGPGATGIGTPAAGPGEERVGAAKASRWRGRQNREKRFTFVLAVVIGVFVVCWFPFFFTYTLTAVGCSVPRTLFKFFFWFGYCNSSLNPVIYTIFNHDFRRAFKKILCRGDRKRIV
Experimental: To evaluate in radioligand binding assays the activity of compounds of the invention, human recombinant adrenergic α2A receptor expressed in insect Sf9 cells (Uhlen S et al. J Pharmacol Exp Ther. 271:1558, 1994) in a modified Tris-HCl buffer (50 mM Tris-HCl, pH 7.4, 12.5 mM MgCl2, 2 mM EDTA) was used. Compounds of invention were incubated with 1 nM [^3H]MK-912 for 60 minutes at 25° C. MK912 is (2S-trans)-1,3,4,5′,6,6′,7,12b-octahydro-1′,3′-dimethyl-spiro[2H-benzofuro[2,3-a]quinolizine-2,4′(1′H)-pyrimidin]-2′(3′H)-one hydrochloride Non-specific binding was estimated in the presence of 10 μM WB-4101 (2-(2,6-Dimethoxyphenoxyethyl)aminomethyl-1,4-benzodioxane hydrochloride). Receptor proteins were filtered and washed, the filters were then counted to determine [^3H]MK-912 specifically bound. […] Biochemical assay results are presented as the percent inhibition of specific binding in Table 6.

[2] = molecular target: T2, human recombinant serotonin (5-Hydroxytryptamine) 5-HT2C receptor (Homo sapiens, UniProt P28335); assay: Serotonin 5-HT2C radioligand binding ([3H]Mesulergine); parameters: Inhibition of ligand binding, Ser. 5-HT2C: concentration or dose not given beside the values; details: for Inhibition of ligand binding, Ser. 5-HT2C: percent inhibition of specific binding; for inhibition at 1 µM: compounds screened at 1 μM, read-out: Inhibition of ligand binding, Ser. 5-HT2C (percent inhibition of specific binding)
T2 construct: expressed in transfected cells; host or cells: CHO-K1 cells
T2 sequence (P28335 33-458): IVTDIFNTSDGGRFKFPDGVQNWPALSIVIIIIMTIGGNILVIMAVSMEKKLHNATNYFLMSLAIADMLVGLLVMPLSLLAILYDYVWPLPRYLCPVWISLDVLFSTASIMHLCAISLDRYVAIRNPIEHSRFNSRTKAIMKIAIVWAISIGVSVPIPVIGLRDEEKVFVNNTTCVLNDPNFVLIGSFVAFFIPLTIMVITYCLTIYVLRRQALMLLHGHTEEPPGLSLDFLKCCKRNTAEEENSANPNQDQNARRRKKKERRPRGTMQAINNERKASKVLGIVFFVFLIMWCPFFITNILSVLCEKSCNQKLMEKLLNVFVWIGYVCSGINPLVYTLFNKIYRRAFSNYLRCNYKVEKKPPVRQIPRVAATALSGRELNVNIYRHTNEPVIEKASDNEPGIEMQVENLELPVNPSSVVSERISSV
Experimental: Compounds of the invention were incubated with 1 nM [^3H]Mesulergine for 60 minutes at 25° C. Non-specific binding was estimated in the presence of 1 μM Mianserin. Receptor proteins were filtered and washed, the filters were then counted to determine [^3H]Mesulergine specifically bound. […] Biochemical assay results are presented as the percent inhibition of specific binding in Table 6.

[3] = molecular target: T3, human recombinant histamine H2 receptor (Homo sapiens, UniProt P25021); assay: Histamine H2 radioligand binding ([125I]Aminopotentidine)
T3 construct: expressed in transfected cells; host or cells: CHO-K1 cells
T3 sequence (P25021 whole entry): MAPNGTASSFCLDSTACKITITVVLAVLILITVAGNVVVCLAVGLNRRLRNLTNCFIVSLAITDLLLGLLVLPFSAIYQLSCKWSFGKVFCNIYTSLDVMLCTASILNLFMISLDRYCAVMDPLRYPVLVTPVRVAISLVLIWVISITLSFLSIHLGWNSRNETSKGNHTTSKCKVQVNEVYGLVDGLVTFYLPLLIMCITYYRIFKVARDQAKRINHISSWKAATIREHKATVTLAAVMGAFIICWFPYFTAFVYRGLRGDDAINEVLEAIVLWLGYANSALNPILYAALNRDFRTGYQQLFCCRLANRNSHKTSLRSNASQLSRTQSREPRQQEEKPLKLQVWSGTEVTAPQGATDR
In short: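 Test compounds were assessed for their ability to displace radioligand from the human recombinant histamine H2 receptor. Non-specific binding was determined in the presence of 3 μM Tiotidine, and results were expressed as percent inhibition of specific binding, with 1% DMSO serving as the vehicle.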

[4] = percent inhibition of specific binding, screened at 1 μM, read-out: Inhibition of ligand binding, Hist. H2
[5] = compounds screened at 1 μM, read-out: Inhibition of ligand binding, Hist. H2 (percent inhibition of specific binding)

Structure (SMILES) | Inhibition of ligand binding, Adren. alpha2A [1] | Inhibition of ligand binding, Ser. 5-HT2C [2] | inhibition at 1 µM [3, 4] | inhibition at 1 µM [1] | inhibition at 1 µM [2] | inhibition at 1 µM [3, 5]
Cc1ccc2c(c1)c1c(n2CCc2cnc(C)cn2)CCN(C)C1 [Compound 322, 2,8-dimethyl-5-(2-(5-methylpyrazin-2-yl)ethyl)-2,3,4,5-tetrahydro-1H-pyrido[4,3-b]indole] | 44% | 69% | 20% | – | – | –
Cc1ccc2c(c1)c1c(n2CCc2cnc(C)nc2)CCN(C)C1 [Compound 323, 2,3,4,5-tetrahydro-2,8-dimethyl-5-(2-(2-methylpyrimidin-5-yl)ethyl)-1H-pyrido[4,3-b]indole] | 6% | 20% | 17% | – | – | –
CN1CCc2c(c3cc(Cl)ccc3n2CCCc2ccc(C(F)(F)F)nc2)C1 [Compound 324, 8-chloro-5-(3-(6-(trifluoromethyl)pyridin-3-yl)propyl)-2,3,4,5-tetrahydro-2-methyl-1H-pyrido[4,3-b]indole] | 60% | 57% | 63% | – | – | –
CC1CCN(C(=O)CCn2c3c(c4cc(Cl)ccc42)CN(C)CC3)CC1 [Compound 325, 3-(8-chloro-1,2,3,4-tetrahydro-2-methylpyrido[4,3-b]indol-5-yl)-1-(4-methylpiperidin-1-yl)propan-1-one] | 58% | 50% | 22% | – | – | –
CN1CCc2c(c3cc(Cl)ccc3n2CCC(=O)N2CCCCC2)C1 [Compound 326, 3-(8-chloro-1,2,3,4-tetrahydro-2-methylpyrido[4,3-b]indol-5-yl)-1-(piperidin-1-yl)propan-1-one] | 55% | 31% | 12% | – | – | –
CN1CCc2c(c3cc(Cl)ccc3n2CCC(=O)N2CCOCC2)C1 [Compound 328, 3-(8-chloro-1,2,3,4-tetrahydro-2-methylpyrido[4,3-b]indol-5-yl)-1-morpholinopropan-1-one] | 45% | 29% | 4% | – | – | –
Cc1ccc2c(c1)c1c(n2CC(=O)N2CCOCC2)CCN(C)C1 [Compound 330, 2-(1,2,3,4-tetrahydro-2,8-dimethylpyrido[4,3-b]indol-5-yl)-1-morpholinoethanone] | 1% | 17% | 6% | – | – | –
Cc1ccc2c(c1)c1c(n2CCCc2ccc(C(F)(F)F)nc2)CCN(C)C1 [Compound 331, 5-(3-(6-(trifluoromethyl)pyridin-3-yl)propyl)-2,3,4,5-tetrahydro-2,8-dimethyl-1H-pyrido[4,3-b]indole] | 50% | 72% | 73% | – | – | –
CCOc1ccc(CCn2c3c(c4cc(C)ccc42)CN(C)CC3)cc1 [Compound 334, 5-[2-(4-Ethoxy-phenyl)-ethyl]-2,8-dimethyl-2,3,4,5-tetrahydro-1H-pyrido[4,3-b]indole] | 101% | 97% | 91% | – | – | –
Cc1ccc2c(c1)c1c(n2CCc2ccc(OC(C)(C)C)cc2)CCN(C)C1 [Compound 335, 5-(4-tert-butoxyphenethyl)-2,3,4,5-tetrahydro-2,8-dimethyl-1H-pyrido[4,3-b]indole] | 31% | 72% | 77% | – | – | –
COc1ccc(CCn2c3c(c4cc(Cl)ccc42)CN(C)CC3)cc1 [Compound 336, 8-Chloro-5-[2-(4-methoxy-phenyl)-ethyl]-2-methyl-2,3,4,5-tetrahydro-1H pyrido[4,3-b]indole] | 96% | 99% | 101% | – | – | –
COc1ccc(CCn2c3c(c4cc(Cl)ccc42)CN(C)CC3)cc1F [Compound 337, 5-(3-fluoro-4-methoxyphenethyl)-8-chloro-2,3,4,5-tetrahydro-2-methyl-1H-pyrido[4,3-b]indole] | 97% | 94% | 92% | – | – | –
CN1CCc2c(c3ccncc3n2CCc2ccccn2)C1 [Compound 481, 7-aza-2-methyl-5-(2-(pyridin-2-yl)ethyl)-2,3,4,5-tetrahydro-1H-pyrido[4,3-b]indole] | – | – | – | 3% | 20% | -17%
CN1CCc2c(c3ncccc3n2CCc2ccncc2)C1 [Compound 482, 9-aza-2-methyl-5-(2-(pyridin-4-yl)ethyl)-2,3,4,5-tetrahydro-1H-pyrido[4,3-b]indole] | – | – | – | -17% | 17% | -9%
CN1CCc2c(c3ccncc3n2CCc2ccncc2)C1 [Compound 483, 7-aza-2-methyl-5-(2-(pyridin-4-yl)ethyl)-2,3,4,5-tetrahydro-1H-pyrido[4,3-b]indole] | – | – | – | -7% | 9% | -7%
CN1CCc2c(c3ncccc3n2CCc2ccccn2)C1 [Compound 484, 9-aza-2-methyl-5-(2-(pyridin-2-yl)ethyl)-2,3,4,5-tetrahydro-1H-pyrido[4,3-b]indole] | – | – | – | 28% | 31% | -4%
Cc1ccc(CCn2c3c(c4cc(I)ccc42)CN(C)CC3)cn1 [Compound 485, 2,3,4,5-tetrahydro-8-iodo-2-methyl-5-(2-(6-methylpyridin-3-yl)ethyl)-1H-pyrido[4,3-b]indole] | – | – | – | 86% | 91% | 71%
CN1CCc2c(c3cc(I)ccc3n2CC(=O)N2CCCCC2)C1 [Compound 486, 2-(1,2,3,4-tetrahydro-8-iodo-2-methylpyrido[4,3-b]indol-5-yl)-1-(piperidin-1-yl)ethanone] | – | – | – | 4% | 31% | 11%
Cc1ccc(CCn2c3c(c4cc(Br)ccc42)CN(C)CC3)cn1 [Compound 487, 8-bromo-2-methyl-5-(2-(6-methylpyridin-3-yl)ethyl)-2,3,4,5-tetrahydro-1H-pyrido[4,3-b]indole] | – | – | – | 88% | 84% | 80%
CN1CCc2c(c3cc(Br)ccc3n2CC(=O)N2CCCCC2)C1 [Compound 516, 2-(8-bromo-2-methyl-3,4-dihydro-1H-pyrido[4,3-b]indol-5(2H)-yl)-1-(piperidin-1-yl)ethanone] | – | – | – | 3% | 58% | 12%
